# Source: PubChem BioAssay (NCI)
#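 Briefly, cells in 96-well plates were exposed to five compound concentrations for 48 h, and endpoints were estimated by linear interpolation. GI50: concentration for 50% inhibition of growth. TGI marks complete inhibition of growth.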
# What was measured:
# Experiment in all cases: growth of human tumour cells (NCI), 48 h
# RXF 393 renal = test system: RXF 393 renal
# SK-MEL-28 melanoma = test system: SK-MEL-28 melanoma
# T-47D breast = test system: T-47D breast
# IGROV1 ovarian = test system: IGROV1 ovarian
# HOP-92 NSCLC = test system: HOP-92 NSCLC
# SK-OV-3 ovarian = test system: SK-OV-3 ovarian
# SNB-75 CNS = test system: SNB-75 CNS
# SK-MEL-5 melanoma = test system: SK-MEL-5 melanoma
# SF-539 CNS = test system: SF-539 CNS
# HCC-2998 colon = test system: HCC-2998 colon
# CAKI-1 renal = test system: CAKI-1 renal
# OVCAR-5 ovarian = test system: OVCAR-5 ovarian
# UACC-62 melanoma = test system: UACC-62 melanoma
# PC-3 prostate = test system: PC-3 prostate
# KM12 colon = test system: KM12 colon
# MALME-3M melanoma = test system: MALME-3M melanoma
# ACHN renal = test system: ACHN renal
# HT29 colon = test system: HT29 colon
# TK-10 renal = test system: TK-10 renal
# MDA-MB-231 breast = test system: MDA-MB-231 breast
# RPMI-8226 leukemia = test system: RPMI-8226 leukemia
# M14 melanoma = test system: M14 melanoma
# HL-60(TB) leukemia = test system: HL-60(TB) leukemia
# SW-620 colon = test system: SW-620 colon
# NCI-H23 lung = test system: NCI-H23 lung
# UO-31 renal = test system: UO-31 renal
# OVCAR-8 ovarian = test system: OVCAR-8 ovarian
# K-562 leukemia = test system: K-562 leukemia
# BT-549 breast = test system: BT-549 breast
# HS 578T breast = test system: HS 578T breast
# NCI-H522 lung = test system: NCI-H522 lung
# A549 NSCLC = test system: A549 NSCLC
# UACC-257 melanoma = test system: UACC-257 melanoma
# OVCAR-4 ovarian = test system: OVCAR-4 ovarian
# HCT-15 colon = test system: HCT-15 colon
# HOP-62 NSCLC = test system: HOP-62 NSCLC
# CCRF-CEM leukemia = test system: CCRF-CEM leukemia
# MDA-MB-435 = test system: MDA-MB-435
# DU-145 prostate = test system: DU-145 prostate
# SF-268 CNS = test system: SF-268 CNS
# A498 renal = test system: A498 renal
# EKVX NSCLC = test system: EKVX NSCLC
# NCI/ADR-RES ovarian = test system: NCI/ADR-RES ovarian
# 786-0 renal = test system: 786-0 renal
# SNB-19 CNS = test system: SNB-19 CNS
# SR leukemia = test system: SR leukemia
# HCT-116 colon = test system: HCT-116 colon
# U251 CNS = test system: U251 CNS
# SF-295 CNS = test system: SF-295 CNS
# MCF7 breast = test system: MCF7 breast
# COLO 205 colon = test system: COLO 205 colon
# SN12C renal = test system: SN12C renal
# SK-MEL-2 melanoma = test system: SK-MEL-2 melanoma
# MOLT-4 leukemia = test system: MOLT-4 leukemia
# NCI-H226 lung = test system: NCI-H226 lung
smiles,measurement,setting,value
Cc1ccc(-c2nnc(SCc3ccc(O)c4ncccc34)o2)cc1,GI50,RXF 393 renal,1120 nM
same,TGI,RXF 393 renal,32200 nM
same,GI50,SK-MEL-28 melanoma,1040 nM
same,TGI,SK-MEL-28 melanoma,> 100000 nM
same,GI50,T-47D breast,1830 nM
same,TGI,T-47D breast,7400 nM
same,GI50,IGROV1 ovarian,1550 nM
same,TGI,IGROV1 ovarian,9860 nM
same,GI50,HOP-92 NSCLC,435 nM
same,TGI,HOP-92 NSCLC,4080 nM
same,GI50,SK-OV-3 ovarian,1980 nM
same,TGI,SK-OV-3 ovarian,6900 nM
same,GI50,SNB-75 CNS,283 nM
same,TGI,SNB-75 CNS,3930 nM
same,GI50,SK-MEL-5 melanoma,844 nM
same,TGI,SK-MEL-5 melanoma,6950 nM
same,GI50,SF-539 CNS,561 nM
same,TGI,SF-539 CNS,5920 nM
same,GI50,HCC-2998 colon,933 nM
same,TGI,HCC-2998 colon,> 100000 nM
same,GI50,CAKI-1 renal,1800 nM
same,TGI,CAKI-1 renal,7720 nM
same,GI50,OVCAR-5 ovarian,4820 nM
same,TGI,OVCAR-5 ovarian,> 100000 nM
same,GI50,UACC-62 melanoma,1760 nM
same,TGI,UACC-62 melanoma,4740 nM
same,GI50,PC-3 prostate,457 nM
same,TGI,PC-3 prostate,> 100000 nM
same,GI50,KM12 colon,1910 nM
same,TGI,KM12 colon,> 100000 nM
same,GI50,MALME-3M melanoma,1960 nM
same,TGI,MALME-3M melanoma,8230 nM
same,GI50,ACHN renal,649 nM
same,TGI,ACHN renal,2320 nM
same,GI50,HT29 colon,6430 nM
same,TGI,HT29 colon,> 100000 nM
same,GI50,TK-10 renal,1280 nM
same,TGI,TK-10 renal,9240 nM
same,GI50,MDA-MB-231 breast,2120 nM
same,TGI,MDA-MB-231 breast,27500 nM
same,GI50,RPMI-8226 leukemia,648 nM
same,TGI,RPMI-8226 leukemia,> 100000 nM
same,GI50,M14 melanoma,816 nM
same,TGI,M14 melanoma,5490 nM
same,GI50,HL-60(TB) leukemia,520 nM
same,TGI,HL-60(TB) leukemia,10200 nM
same,GI50,SW-620 colon,1060 nM
same,TGI,SW-620 colon,> 100000 nM
same,GI50,NCI-H23 lung,1470 nM
same,TGI,NCI-H23 lung,13000 nM
same,GI50,UO-31 renal,567 nM
same,TGI,UO-31 renal,3240 nM
same,GI50,OVCAR-8 ovarian,850 nM
same,TGI,OVCAR-8 ovarian,> 100000 nM
same,GI50,K-562 leukemia,1140 nM
same,TGI,K-562 leukemia,66300 nM
same,GI50,BT-549 breast,1060 nM
same,TGI,BT-549 breast,> 100000 nM
same,GI50,HS 578T breast,570 nM
same,TGI,HS 578T breast,> 100000 nM
same,GI50,NCI-H522 lung,2290 nM
same,TGI,NCI-H522 lung,> 100000 nM
same,GI50,A549 NSCLC,1950 nM
same,TGI,A549 NSCLC,> 100000 nM
same,GI50,UACC-257 melanoma,2330 nM
same,TGI,UACC-257 melanoma,9300 nM
same,GI50,OVCAR-4 ovarian,2450 nM
same,TGI,OVCAR-4 ovarian,> 100000 nM
same,GI50,HCT-15 colon,492 nM
same,TGI,HCT-15 colon,> 100000 nM
same,GI50,HOP-62 NSCLC,1060 nM
same,TGI,HOP-62 NSCLC,3830 nM
same,GI50,CCRF-CEM leukemia,518 nM
same,TGI,CCRF-CEM leukemia,> 100000 nM
same,GI50,MDA-MB-435,500 nM
same,TGI,MDA-MB-435,> 100000 nM
same,GI50,DU-145 prostate,1460 nM
same,TGI,DU-145 prostate,> 100000 nM
same,GI50,SF-268 CNS,503 nM
same,TGI,SF-268 CNS,> 100000 nM
same,GI50,A498 renal,1080 nM
same,TGI,A498 renal,13600 nM
same,GI50,EKVX NSCLC,1730 nM
same,TGI,EKVX NSCLC,9860 nM
same,GI50,NCI/ADR-RES ovarian,706 nM
same,TGI,NCI/ADR-RES ovarian,7020 nM
same,GI50,786-0 renal,1610 nM
same,TGI,786-0 renal,6810 nM
same,GI50,SNB-19 CNS,513 nM
same,TGI,SNB-19 CNS,14300 nM
same,GI50,SR leukemia,568 nM
same,TGI,SR leukemia,42700 nM
same,GI50,HCT-116 colon,537 nM
same,TGI,HCT-116 colon,> 100000 nM
same,GI50,U251 CNS,444 nM
same,TGI,U251 CNS,> 100000 nM
same,GI50,SF-295 CNS,1020 nM
same,TGI,SF-295 CNS,5780 nM
same,GI50,MCF7 breast,388 nM
same,TGI,MCF7 breast,> 100000 nM
same,GI50,COLO 205 colon,8410 nM
same,TGI,COLO 205 colon,> 100000 nM
same,GI50,SN12C renal,966 nM
same,TGI,SN12C renal,> 100000 nM
same,GI50,SK-MEL-2 melanoma,2240 nM
same,TGI,SK-MEL-2 melanoma,39400 nM
same,GI50,MOLT-4 leukemia,877 nM
same,TGI,MOLT-4 leukemia,> 100000 nM
same,GI50,NCI-H226 lung,2420 nM
same,TGI,NCI-H226 lung,> 100000 nM
